Assay results as given in patent US20090137664A1, “SAURURUS CERNUUS COMPOUNDS THAT INHIBIT CELLULAR RESPONSES TO HYPOXIA” (priority 2003, published 2009).
Read-outs that look alike come from different tables or passages of the source.

How the values were obtained:
HIF-1 [1] = test: pTK-HRE3-luc reporter assay, hypoxia-induced HIF-1 activation in T47D cells
[2] = T47D cell viability / cytotoxicity; assay type: cell-based, human; conditions: human; 100 μM; read-out: reduction of T47D cell viability
secreted VEGF protein [3] = test: hypoxic induction of secreted VEGF protein in T47D cells (ELISA); assay type: cell-based, human; conditions: for concentration at which hypoxic induction of secreted VEGF protein is completely blocked / inhibition of VEGF protein levels relative to the hypoxia-induced positive control: 12-well; for inhibition of VEGF protein levels relative to the hypoxia-induced positive control: p<0.01; for reduction of secreted VEGF protein induced by hypoxia: 96-well, 1 at 100 nM, 2 at 10 nM, PD98059 at 100 μM
Description: (§1) The effects of compounds 1 and 2 on hypoxic induction of secreted VEGF protein are examined in T47D cells. Exponentially grown T47D cells are plated at the density of 30,000 cells/well into 96-well plates. Compound treatment and hypoxic exposure are the same as described. Following incubation, the concentration of secreted VEGF protein in the conditioned media is determined by ELISA (R & D Systems) and the data normalized by the number of viable cells. Results shown in FIG. 4 are averages from a representative experiment performed in quadruplicate, the bars represent standard error. An asterisk (*) indicates the level of significance (p<0.01) relative to the hypoxic control, two asterisks (**) (p<0.0001), and no asterisk indicates no statistical difference (ANOVA and Fisher's PLSD post hoc test).
As discussed earlier, one important HIF-1 target gene is VEGF, a key factor for tumor angiogenesis. Compounds that can inhibit both HIF-1 activation and the production of secreted VEGF protein represent potential efficacious chemotherapeutic agents that inhibit both tumor survival and hypoxia induced angiogenesis. The effects of four active examples (compounds 2, 3, 4, and 5) on hypoxic induction of secreted VEGF protein are examined in T47D cells and the data are presented in FIG. 9. Exponentially grown T47D cells are plated at the density of 356,000 cells/well into 12-well plates. Compound treatment and hypoxic exposure are the same as described. Following incubation, the concentration of secreted VEGF protein in the conditioned media is determined by ELISA (R & D Systems) and the data normalized by the number of viable cells. […] Hypoxic exposure leads to a 2-fold increase in the level of secreted VEGF protein. […] The level of significance (p<0.01) is determined by ANOVA and Fisher's PLSD post hoc test. The exemplary compounds 2, 3, and 4 all completely block hypoxic induction of secreted VEGF protein at concentrations as low as 10 nM. The exemplary compound 5 inhibits the hypoxic induction by 60% at 10 nM, and completely blocks at 100 nM. When tested at 100 nM, none of the compounds interfere with the ELISA assay using VEGF standard (no greater than 15% difference).

[4] = target: T1, recombinant VEGF protein standard (Homo sapiens, UniProt P15692); test: interference with the VEGF ELISA using VEGF standard
T1 construct: purchased R & D Systems
T1 sequence (P15692 27-191 isoform P15692-4): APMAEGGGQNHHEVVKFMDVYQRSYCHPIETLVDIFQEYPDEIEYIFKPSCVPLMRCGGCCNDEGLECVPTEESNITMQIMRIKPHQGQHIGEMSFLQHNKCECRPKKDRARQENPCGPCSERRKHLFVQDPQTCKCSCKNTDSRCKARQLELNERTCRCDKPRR
Description: as §1
As discussed earlier, one important HIF-1 target gene is VEGF, a key factor for tumor angiogenesis. Compounds that can inhibit both HIF-1 activation and the production of secreted VEGF protein represent potential efficacious chemotherapeutic agents that inhibit both tumor survival and hypoxia induced angiogenesis. […] Following incubation, the concentration of secreted VEGF protein in the conditioned media is determined by ELISA (R & D Systems) and the data normalized by the number of viable cells. […] The level of significance (p<0.01) is determined by ANOVA and Fisher's PLSD post hoc test. […]

pGL3 Control = test: luciferase expression from control plasmid pGL3 Control; assay type: cell-based, human
Description: The chemical structures of active compounds 1 and 2 are shown above. Compound 2 is the known compound manassantin B and 1 is a novel compound of the present invention. […] Similar results are obtained from separate experiments. The IC50 is 3 nM for 2 and 30 nM for 1. Complete inhibition is observed at 10 nM for 2 and 100 nM for 1.

HIF-1 [5] = test: pTK-HRE3-luc reporter assay, 1,10-phenanthroline-induced HIF-1 activation in T47D cells; assay type: cell-based; conditions: Homo sapiens, read-out: inhibition of HIF-1 activation by 1,10-phenanthroline, 1 μM
Source text: Iron chelators and transition metals (such as cobalt and nickel) can activate HIF-1 and have been used as chemical hypoxia mimetics. […] The expression of the HIF-1α subunit quantitatively determines HIF-1 biological activity (activation of transcription).

T47D cells = test: T47D cell viability / cytotoxicity; assay type: cell-based, human
secreted VEGF protein [6] = test: induction of secreted VEGF protein by 1,10-phenanthroline in T47D cells (ELISA); assay type: cell-based, human; conditions: 10 μM, 16 hr
Description: Cell plating and compound treatment is similar to those described earlier for hypoxic conditions. […] At the end of the incubation, the concentration of secreted VEGF protein in the conditioned media is determined by ELISA and the data normalized by the number of viable cells.

HIF-1β protein = test: Western blot, HIF-1β protein in T47D nuclear extract; assay type: cell-based, human
Description: Due to the low abundance of HIF-1α protein in whole cell extract, nuclear extract is prepared and the level of HIF-1α protein in the nuclear extract determined by Western blot. Briefly, exponentially grown T47D cells are exposed to compound 2 for 30 minutes. […] Nuclear extracts are prepared from control and treated cells, separated on a SDS/PAGE gel, the separated proteins transferred to a nitrocellulose membrane, incubated with the primary antibodies (anti-HIF-1α, and anti-HIF-1β monoclonal antibodies, Novus Biologicals), secondary antibody biotinylated anti-mouse immunoglobulin G and Vectastain ABC reagent (Vector Laboratories), and developed using ECL reagents (Amersham Biosciences). […] No change in HIF-1β protein level is observed across the treatments. It is reasonable to conclude that the selectivity of compound 2 towards hypoxia-activated HIF-1 is caused by selective blockade of the hypoxic induction of HIF-1 protein.

SMILES: O=c1c(-c2ccc(O)cc2)coc2cc(O)cc(O)c12 [genistein, reference compound]
- concentration for 70% inhibition of hypoxic activation of HIF-1 (HIF-1 [1]): 10 µM
- IC50 (HIF-1 [1]; Homo sapiens, T47D, 16 h, read-out: IC50 for inhibition of hypoxia-induced HIF-1 activation): 1000 nM
- cytotoxicity at 100 μM [2]: 50%

SMILES: COc1ccc(C(O)C(C)Oc2ccc(C3OC(c4ccc(OC)c(OC)c4)C(C)C3C)cc2OC)cc1OC (stereo not drawn) [Compound 5]
- concentration at which complete inhibition of hypoxic activation of HIF-1 is observed (HIF-1 [1]; T47D, pHRE-luc assay): 100 nM
- concentration at which hypoxic induction of secreted VEGF protein is completely blocked (secreted VEGF protein [3]): 100 nM
- inhibition of VEGF protein levels relative to the hypoxia-induced positive control (secreted VEGF protein [3]): significantly inhibit
- inhibition at 0.01 µM (secreted VEGF protein [3]; Homo sapiens, 10 nM): 60%

SMILES: COc1cc(C(O)C(C)Oc2ccc(C3OC(c4ccc(OC(C)C(O)c5ccc6c(c5)OCO6)c(OC)c4)C(C)C3C)cc2OC)ccc1O (stereo not drawn) [Compound 1]
- interference with the ELISA assay [4]: neither compound interferes
- IC50 (HIF-1 [1]; Homo sapiens, T47D, read-out: IC50, inhibition of hypoxic activation of HIF-1): 30 nM
- concentration at which complete inhibition of hypoxic activation of HIF-1 is observed (HIF-1 [1]; T47D, pHRE-luc assay): 100 nM
- luciferase expression from the pGL3-Control plasmid (pGL3 Control; 1,10-phenanthroline experiment (FIG. 5)): Neither compound exerts significant effect
- luciferase expression from the control plasmid (pGL3 Control) (pGL3 Control; hypoxia experiment (FIG. 3)): No statistically significant difference
- inhibition at 1 µM (HIF-1 [5]): 45%
- reduction of secreted VEGF protein induced by hypoxia (secreted VEGF protein [3]): statistically significant reduction

SMILES: COc1cccc(-c2cc(=O)c3ccccc3o2)c1N [PD98059, reference compound]
- concentration for 70% inhibition of hypoxic activation of HIF-1 (HIF-1 [1]): 10 µM
- concentration at which hypoxic activation of HIF-1 is completely inhibited (HIF-1 [1]; T47D, pHRE-luc assay): 100 µM
- IC50 (HIF-1 [1]; read-out: IC50 for inhibition of hypoxia-induced HIF-1 activation, T47D cells, hypoxic conditions 16 hr): 2000 nM
- cytotoxicity (T47D cells): no significant cytotoxicity
- reduction of secreted VEGF protein induced by hypoxia (secreted VEGF protein [3]): only 1 and 2 treatments lead to statistically significant reduction

SMILES: c1cnc2c(c1)ccc1cccnc12 [1,10-phenanthroline, reference compound]
- secreted VEGF protein level in T47D cells (secreted VEGF protein [6]): significantly induces
- HIF-1β protein level (HIF-1β protein): no significant effect

SMILES: COc1ccc(C(O)C(C)Oc2ccc(C3OC(c4ccc(OC(C)C(O)c5ccc(OC)c(OC)c5)c(OC)c4)C(C)C3C)cc2OC)cc1OC (stereo not drawn) [Compound 3]
- concentration at which complete inhibition of hypoxic activation of HIF-1 is observed (HIF-1 [1]; T47D, pHRE-luc assay): 10 nM
- concentration at which hypoxic induction of secreted VEGF protein is completely blocked (secreted VEGF protein [3]): 10 nM
- inhibition of VEGF protein levels relative to the hypoxia-induced positive control (secreted VEGF protein [3]): significantly inhibit

SMILES: COc1ccc(C(O)C(C)Oc2ccc(C3OC(c4ccc(OC(C)C(O)c5ccc6c(c5)OCO6)c(OC)c4)C(C)C3C)cc2OC)cc1OC (stereo not drawn) [Compound 4]
- concentration at which complete inhibition of hypoxic activation of HIF-1 is observed (HIF-1 [1]; T47D, pHRE-luc assay): 10 nM
- concentration at which hypoxic induction of secreted VEGF protein is completely blocked (secreted VEGF protein [3]): 10 nM
- inhibition of VEGF protein levels relative to the hypoxia-induced positive control (secreted VEGF protein [3]): significantly inhibit
